pIC50: −log10 of the molar value. Where a name gives a salt, the structure may show the parent alone. Read-outs that look alike come from different tables or passages of the source.
Tests used:
heparanase = molecular target: T1, heparanase (Homo sapiens, UniProt Q9Y251); assay: AGA*IA assay: heparanase-catalyzed fondaparinux cleavage, colorimetric (WST-1); type: biochemical
T1 sequence (Q9Y251 158-543 limits assumed): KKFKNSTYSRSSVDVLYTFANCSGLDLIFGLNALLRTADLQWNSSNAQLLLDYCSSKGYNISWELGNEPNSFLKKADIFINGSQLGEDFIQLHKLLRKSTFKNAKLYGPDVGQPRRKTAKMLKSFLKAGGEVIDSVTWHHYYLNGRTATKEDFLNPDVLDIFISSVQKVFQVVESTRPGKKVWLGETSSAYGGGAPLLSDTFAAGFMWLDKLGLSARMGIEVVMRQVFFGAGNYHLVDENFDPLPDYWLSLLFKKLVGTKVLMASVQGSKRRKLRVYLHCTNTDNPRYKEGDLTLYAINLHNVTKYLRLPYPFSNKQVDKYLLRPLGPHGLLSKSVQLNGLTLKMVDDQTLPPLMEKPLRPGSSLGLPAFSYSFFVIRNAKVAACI
T1 sequence (Q9Y251 36-109 limits assumed): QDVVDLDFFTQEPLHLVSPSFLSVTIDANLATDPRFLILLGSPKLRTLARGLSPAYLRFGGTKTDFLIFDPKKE
Method: All compounds were tested in a simple, accurate and robust microplate assay based on the cleavage of the synthetic heparin fragment, the pentasaccharide Fondaparinux (AGA*IA). This assay was originally developed by Hammond and coworkers (Hammond E, Li CP, Ferro V. Development of a colorimetric assay for heparanase activity suitable for kinetic analysis and inhibitor screening. Anal. Biochem. 396(1), 112-116 (2010)), where Fondaparinux corresponds to the methyl glycoside of the antithrombin III (ATIII)-activating pentasaccharide sequence of heparin. Fondaparinux is cleaved by heparanase to generate a reducing disaccharide, which can be quantitatively measured via a colorimetric or a fluorescence assay, the last by the fluorescent sensor polymer-H [Schiemann S, Lühn S, Alban S. Development of both colorimetric and fluorescence heparinase activity assays using fondaparinux as substrate. Anal. Biochem. 427(1), 82-89 (2012)].
The assay measures the appearance of the disaccharide product of heparanase-catalyzed fondaparinux cleavage colorimetrically using the tetrazolium salt WST-1. Assay was essentially performed as described with minor modifications. Briefly, NUNC ELISA 96-well plates were pre-treated with a solution of 4% BSA (bovin serum albumin) in phosphate-buffered saline containing 0.05% Tween 20 (PBST), for 2 h at 37°C, then washed three times with PBST, dried by tapping on paper towel and stored at -20°C. Before use, once again, the plates were washed with PBST.
Assay was carried out with 100 µl/well of assay solution containing 40 mM sodium acetate buffer (pH 5.0), 100 µM fondaparinux, 2.5 nM heparanase and serial dilutions of test compounds (tested in triplicate). Plates were sealed with adhesive tape and incubated, in the dark, for 3 h at 37°C, followed by development with 1.69 mM of the tetrazolium salt WST-1 solution in 0.1 M NaOH, for 1 h at 60°C. Then, the absorbance at 560 nm was measured through a microplate reader (Victor 3, Perkin Elmer).
Finally, the measurements were corrected by subtracting both the reagent background and the inner absorbance value of test compound.

[1] = test system: HT1080 (human fibrosarcoma); assay: SRB Cell Cytotoxicity Assay (cell proliferation, 72h); type: cell-based; settings: read-out: Concentration (µM) of test compounds at which the cell growth is inhibited by 50 %. HT1080
Method: (§1) SRB Cell Cytotoxicity Assay is an assay based upon the quantitative staining of cellular proteins by sulforhodamine B (SRB). This assay can be used for high-throughput drug screening ([…], Nature Protocol. 2006, 1, 112). Sulforhodamine B is an anionic aminoxanthene dye that forms an electrostatic complex with the basic amino acid residues of proteins under moderately acid conditions, which provides a sensitive linear response. […] Inhibition of cell proliferation was then measured by the classical colorimetric SRB Cell Cytotoxicity assay. Absorbance was measured by spectrophotometer at a wavelength of 510 nm and cell proliferation was determined as percent with respect to control cells (cells treated with the vehicle alone). EC50 values were then determined by GraphPad Prism.

[2] = test system: U2OS (human osteosarcoma); assay: as above; type: cell-based; settings: read-out: Concentration (µM) of test compounds at which the cell growth is inhibited by 50 %. U2OS
Method: as §1

[3] = test system: U87MG (human glioblastoma astrocytoma); assay: as above; type: cell-based; settings: U-87 MG, read-out: Concentration (µM) of test compounds at which the cell growth is inhibited by 50 %. U87MG
Method: as §1

[4] = test system: HT1080 (human fibrosarcoma); assay: Matrigel cell invasion assay; type: cell-based; settings: for inhibition at 2.5 µM: HT-1080, read-out: Invasion Assay Inhibition HT1080
Method: (§2) Heparanase inhibitors were then evaluated for their activity on the invasive potential of HT1080 (human fibrosarcoma), U87MG (human glioblastoma astrocytoma) and U2OS (human osteosarcoma) human cell lines, using the Matrigel cell invasion assay which allows to assess the cell invasion ability of malignant and normal cells.
(§3) Invasion assay was performed using BioCoat cell culture inserts (BioCoat 8.0µm PET Membrane 24 Well Permeable Supports, Corning). Filters were coated with 100 µl of 300 µg/ml Matrigel dissolved in coating buffer (0.01 M Tris pH 8.0, 0.7% NaCl) (Becton-Dickinson Sciences). DMEM (Dulbecco's Modified Eagle's Medium) containing 5% FBS was added to the lower chambers. Cells were pre-treated with heparanase inhibitors for 24 h, detached and added to the upper chambers in media containing the inhibitors. Cells were allowed to invade for 24 h at 37°C in a CO2 incubator and then unmigrated cells were removed from the upper chamber with a cotton swab. The invading cells were fixed, stained with 0.1% crystal violet for 10 min at room temperature, photographed and counted under inverted microscope.
(§4) Test compounds were analyzed at fixed concentration (2.5 µM) for several fields, in duplicates. Activity of test compounds was compared to the reference compound. Activity of most interesting compound was confirmed in a second cell invasion assay. Data were expressed as the percent invasion with respect to cell migration through uncoated insert membrane.
(§5) Table 3. […] In Invasion assay, data were expressed as the percent invasion (range) with respect to cell migration through uncoated insert membrane. In Adhesion assay, data were expressed as the percent of adhesion with respect to the control (100%).

[5] = test system: U2OS (human osteosarcoma); assay: Matrigel cell invasion assay; type: cell-based; settings: for inhibition at 2.5 µM: Homo sapiens, read-out: Invasion Assay Inhibition U2OS
Method: as §2, §3, §4, §5

[6] = test system: U87MG (human glioblastoma astrocytoma); assay: Matrigel cell invasion assay; type: cell-based; settings: for inhibition at 2.5 µM: Homo sapiens, U-87 MG, read-out: Invasion Assay Inhibition U87MG
Method: as §2, §3, §4, §5

[7] = test system: HT1080 (human fibrosarcoma); assay: Cell adhesion assay on matrigel coated wells; type: cell-based; settings: percent of adhesion with respect to the control (100%)
Method: (§6) Cell surface, non-integrin molecules such as heparan sulfate proteoglycans (HSPGs) may be involved in the regulation of early adhesive stages of cell-ECM interactions. A cell adhesion assay has been employed to determine if the newly designed heparanase inhibitors were able to interfere with adhesion properties of cancer cells.
(§7) HT1080 (human fibrosarcoma) and U87MG (human glioblastoma astrocytoma) cells were treated for 18-20 h with test compounds in complete medium supplemented with 10% FCS. Then cells were collected, washed in complete medium, and added to matrigel coated wells in triplicate, at previously identified optimal seeding density, and incubated at 37 °C in complete medium for times ranging from 15 minutes to 4h, according to the cell line. After incubation, the wells were washed three times with serum-free medium and the remaining firmly attached cells were stained with crystal-violet 0.1%. Optical density was measured at 560 nm by Victor 3 (Perkin-Elmer) plate analyzer. Each experiment was repeated three times.
as §5

[8] = test system: U87MG (human glioblastoma astrocytoma); assay: Cell adhesion assay on matrigel coated wells; type: cell-based; settings: percent of adhesion with respect to the control (100%)
Method: as §6, §7, §5

[9] = AGA*IA screening, read-out: anti-heparanase activity
[10] = Table 1, range activity classes, AGA*IA test on Fondaparinux, read-out: AGAIA assay IC50
[11] = Table 2, classes as in Table 1, read-out: AGA*IA assay

Structure (SMILES) | pIC50 (heparanase; [9]) | pIC50 (heparanase; [10]) | pIC50 (heparanase; [11]) | EC50 ([1]; HT-1080, 72 h) | EC50 ([2]; 72 h) | EC50 ([3]; 72 h) | inhibition at 2.5 µM [4] | Invasion Assay Inhibition U2OS ([5]; 2.5 µM) | inhibition at 2.5 µM [6] | Adhesion Assay (%) HT1080 ([7]; 2.5 µM) | Adhesion Assay (%) U87MG ([8]; 2.5 µM) | inhibition at 2.5 µM [5] | EC50 ([1]; HT-1080, HT1080, 72h, SRB) | EC50 ([2]; 72h, SRB) | EC50 ([3]; U87MG, 72h, SRB) | inhibition at 10 µM ([4]; HT-1080, HT1080, 10 µM (reference)) | Invasion Assay Inhibition U2OS ([5]; 10 µM (reference)) | Invasion Assay Inhibition U87MG ([6]; U87MG, 10 µM (reference)) | Adhesion Assay (%) HT1080 ([7]; 10 µM (reference)) | Adhesion Assay (%) U87MG ([8]; 10 µM (reference))
Cn1cc(NC(=O)c2cccc(NC(=O)Nc3cccc(C(=O)Nc4cc(C(=O)Nc5cccc(CC(=O)NCC(=O)O)c5)n(C)c4)c3)c2)cc1C(=O)Nc1cccc(CC(=O)NCC(=O)O)c1 [Compound 12b, 2,2'-((2,2'-(((4,4'-((3,3'-(Carbonylbis(azanediyl))bis(benzoyl))bis(azanediyl))bis(1-methyl-1H-pyrrole-4,2-diyl-2-carbonyl))bis(azanediyl))bis(3,1-phenylene))bis(acetyl))bis(azanediyl))diacetic acid] | > 6.30 | 6.31 to 7.30 | 6.31 to 7.30 | > 2.5 µM | > 2.5 µM | > 2.5 µM | < 50% | - | < 50% | 97.1% | 16.7% |  |  |  |  |  |  |  |  | 
Cn1cc(NC(=O)c2cc(NC(=O)Nc3cc(C(=O)Nc4cc(C(=O)Nc5cccc(CC(=O)NCC(=O)O)c5)n(C)c4)cc(C(F)(F)F)c3)cc(C(F)(F)F)c2)cc1C(=O)Nc1cccc(CC(=O)NCC(=O)O)c1 [Compound 13c, Disodium 2,2'-{carbonylbis[imino[5-(trifluoromethyl)-3,1-phenylene]carbonylimino(1-methyl-1H-pyrrole-4,2-diyl)carbonylimino-3,1-phenylene(1-oxoethane-2,1-diyl)imino]}diethanoate salt] | > 6.30 | 6.31 to 7.30 | 6.31 to 7.30 | > 2.5 µM | > 2.5 µM | > 2.5 µM | < 50% |  | < 50% | 88.2% | 22.0% | 50 to 90% |  |  |  |  |  |  |  | 
Cn1cc(NC(=O)Nc2cc(C(=O)Nc3cc(C(=O)Nc4cccc(CC(=O)N[C@@H](Cc5ccccc5)C(=O)O)c4)n(C)c3)n(C)c2)cc1C(=O)Nc1cc(C(=O)Nc2cccc(CC(=O)N[C@@H](Cc3ccccc3)C(=O)O)c2)n(C)c1 [Compound 17e, 2,2'-{carbonylbis[imino(1-methyl-1H-pyrrole-4,2-diyl)carbonylimino(1-methyl-1H-pyrrole-4,2-diyl)carbonylimino-3,1-phenylene(1-oxoethane-2,1-diyl)imino]}bis(3-phenylpropanoic acid)] |  | 6.00 to 6.30 | 6.00 to 6.30 | > 2.5 µM | > 2.5 µM | > 2.5 µM | < 50% | - | < 50% | 93.2% | 51.6% |  |  |  |  |  |  |  |  | 
Cn1cc(NC(=O)Nc2cc(C(=O)Nc3cc(C(=O)Nc4cccc(CC(=O)NCC(=O)O)c4)n(C)c3)n(C)c2)cc1C(=O)Nc1cc(C(=O)Nc2cccc(CC(=O)NCC(=O)O)c2)n(C)c1 [Compound 18, Disodium 2,2'-{carbonylbis[imino(1-methyl-1H-pyrrole-4,2-diyl)carbonylimino(1-methyl-1H-pyrrole-4,2-diyl)carbonylimino-3,1-phenylene(1-oxoethane-2,1-diyl)imino]}diethanoate salt] |  | 6.00 to 6.30 | 6.00 to 6.30 | > 2.5 µM | > 2.5 µM | > 2.5 µM | 50 to 90% |  | < 50% | 86.4% | 62.9% | < 50% |  |  |  |  |  |  |  | 
Cc1ccc(C(=O)Nc2ccc(S(=O)(=O)O)c3cc(S(=O)(=O)O)cc(S(=O)(=O)O)c23)cc1NC(=O)c1cccc(NC(=O)Nc2cccc(C(=O)Nc3cc(C(=O)Nc4ccc(S(=O)(=O)O)c5cc(S(=O)(=O)O)cc(S(=O)(=O)O)c45)ccc3C)c2)c1 [Suramin, reference compound] |  |  |  |  |  |  |  |  |  |  |  |  | > 10 µM | > 10 µM | > 10 µM | < 50% | - | - | 100% | 72.98%

— patent publication EP3381898A1, “SYMMETRICAL TRIS-ARYL-AMIDE DERIVATIVES AND THEIR USE AS ANTI-HEPARANASE” (priority 2017, dated 2018)
